What was measured:
Assay in all cases: Histone peptide microarray
Type in all cases: binding, human
Settings in all cases: histone peptide array
TRIM66 (PB) = tested on: TRIM66 (PB)
In short: (§1)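 A peptide microarray holding 293 synthetic histone peptides with individual or combinatorial modifications was probed with each GST-PHD protein at 0.5 μM. Values represent mean intensity (±SD) from four replicates.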

AIRE (PP) = tested on: AIRE (PP)
In short: as §1

MLL5 = tested on: MLL5
In short: as §1

ING1 = tested on: ING1
In short: as §1

DPF2 (PPC2W2) = tested on: DPF2 (PPC2W2)
In short: as §1

KDM7A = tested on: KDM7A
In short: as §1

RAG2 = tested on: RAG2
In short: as §1

PHF21A = tested on: PHF21A
In short: as §1

ING3 = tested on: ING3
In short: as §1

SP140L = tested on: SP140L
In short: as §1

KDM5A (3) = tested on: KDM5A (3)
In short: as §1

BPTF (PB) = tested on: BPTF (PB)
In short: as §1

CHD5 (PPCC) = tested on: CHD5 (PPCC)
In short: as §1

PHF8 = tested on: PHF8
In short: as §1

KDM5B (1) = tested on: KDM5B (1)
In short: as §1

ING2 = tested on: ING2
In short: as §1

ING4 = tested on: ING4
In short: as §1

TAF3 = tested on: TAF3
In short: as §1

PHF2 = tested on: PHF2
In short: as §1

BAZ2B = tested on: BAZ2B
In short: as §1

CHD5 (PCC) = tested on: CHD5 (PCC)
In short: as §1

MORC3 (CW) = tested on: MORC3 (CW)
In short: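 Steps: express and purify GST-tagged PHD reader; incubate 0.5 μM protein on a peptide microarray (293 histone peptides, single or combined PTMs) following an optimized protocol; average signal across 4 replicates.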

PHF13 = tested on: PHF13
In short: as §1

KDM5B (3) = tested on: KDM5B (3)
In short: as §1

DIDO1 = tested on: DIDO1
In short: as §1

KDM5A (1) = tested on: KDM5A (1)
In short: as §1

ING5 = tested on: ING5
In short: as §1

CHD4 (PPCC) = tested on: CHD4 (PPCC)
In short: as §1

PHF23 = tested on: PHF23
In short: as §1

PHRF1 (RP) = tested on: PHRF1 (RP)
In short: as §1

KDM4C (TTP) = tested on: KDM4C (TTP)
In short: as §1

[1] = sheet "Array Heatmap", GST-tagged reader, total n = 4

## H3R2me2s + K4me2: H3 1-20
TRIM66 (PB); GST-tagged TRIM66 (PB = PHD + Bromodomain), arrays performed twice, n of 4
  Array Heatmap signal, TRIM66 (PB): 0.6465
AIRE (PP); GST-tagged AIRE (PP), arrays performed twice, n of 4
  Array Heatmap signal, AIRE (PP): 0.4691
MLL5; GST-tagged MLL5, arrays performed twice, n of 4
  Array Heatmap signal, MLL5: 0.5794
ING1; GST-tagged ING1, arrays performed twice, n of 4
  Array Heatmap signal, ING1: 0.5374
DPF2 (PPC2W2); GST-tagged DPF2 (PPC2W2 = Dual PHD + C2W2-type Zn-finger), arrays performed twice, n of 4
  Array Heatmap signal, DPF2 (PPC2W2): 0.6255
KDM7A; GST-tagged KDM7A, arrays performed twice, n of 4
  Array Heatmap signal, KDM7A: 0.4256
RAG2; GST-tagged RAG2, arrays performed twice, n of 4
  Array Heatmap signal, RAG2: 0.4992
PHF21A; GST-tagged PHF21A, arrays performed twice, n of 4
  Array Heatmap signal, PHF21A: 0.4639
ING3; GST-tagged ING3, arrays performed twice, n of 4
  Array Heatmap signal, ING3: 0.5515
SP140L; GST-tagged SP140L, arrays performed twice, n of 4
  Array Heatmap signal, SP140L: 0.3393
KDM5A (3); GST-tagged KDM5A (3), arrays performed twice, n of 4
  Array Heatmap signal, KDM5A (3): 0.7167
BPTF (PB); GST-tagged BPTF (PB = PHD + Bromodomain), arrays performed twice, n of 4
  Array Heatmap signal, BPTF (PB): 0.3673
CHD5 (PPCC); GST-tagged CHD5 (PPCC = Dual PHD + Dual Chromodomain), arrays performed twice, n of 4
  Array Heatmap signal, CHD5 (PPCC): 0.5636
PHF8; GST-tagged PHF8, arrays performed twice, n of 4
  Array Heatmap signal, PHF8: 0.5813
KDM5B (1); GST-tagged KDM5B (1), arrays performed twice, n of 4
  Array Heatmap signal, KDM5B (1): 0.7544
ING2; GST-tagged ING2, arrays performed twice, n of 4
  Array Heatmap signal, ING2: 0.6563
ING4; GST-tagged ING4, arrays performed twice, n of 4
  Array Heatmap signal, ING4: 0.4666
TAF3; GST-tagged TAF3, arrays performed twice, n of 4
  Array Heatmap signal, TAF3: 0.4
PHF2; GST-tagged PHF2, arrays performed twice, n of 4
  Array Heatmap signal, PHF2: 0.597
BAZ2B; GST-tagged BAZ2B, arrays performed twice, n of 4
  Array Heatmap signal, BAZ2B: 0.454
CHD5 (PCC); GST-tagged CHD5 (PCC = PHD + Dual Chromodomain), arrays performed twice, n of 4
  Array Heatmap signal, CHD5 (PCC): 0.8074
MORC3 (CW); GST-tagged MORC3 (CW = CW-type Zn-finger), arrays performed twice, n of 4
  Array Heatmap signal, MORC3 (CW): 0.7987
PHF13; GST-tagged PHF13, arrays performed twice, n of 4
  Array Heatmap signal, PHF13: 0.6897
KDM5B (3); GST-tagged KDM5B (3), arrays performed twice, n of 4
  Array Heatmap signal, KDM5B (3): 0.725
DIDO1; GST-tagged DIDO1, arrays performed twice, n of 4
  Array Heatmap signal, DIDO1: 0.7352
KDM5A (1); GST-tagged KDM5A (1), arrays performed twice, n of 4
  Array Heatmap signal, KDM5A (1): 0.4761
ING5; GST-tagged ING5, arrays performed twice, n of 4
  Array Heatmap signal, ING5: 0.3606
CHD4 (PPCC); GST-tagged CHD4 (PPCC = Dual PHD + Dual Chromodomain), arrays performed twice, n of 4
  Array Heatmap signal, CHD4 (PPCC): 0.5835
PHF23; GST-tagged PHF23, arrays performed twice, n of 4
  Array Heatmap signal, PHF23: 0.6298
PHRF1 (RP); GST-tagged PHRF1 (RP), arrays performed twice, n of 4
  Array Heatmap signal, PHRF1 (RP): 0.4714
KDM4C (TTP); GST-tagged KDM4C (TTP = Tandem Tudor domain + PHD), arrays performed twice, n of 4
  Array Heatmap signal, KDM4C (TTP): 0.5629

## H3R2me2s + K4me3 + K9ac + K14ac + K18ac: H3 1-20
TRIM66 (PB); [1]
  Array Heatmap signal, TRIM66 (PB): 0.4734
AIRE (PP); [1]
  Array Heatmap signal, AIRE (PP): 0.3152
MLL5; [1]
  Array Heatmap signal, MLL5: 0.5797
ING1; [1]
  Array Heatmap signal, ING1: 0.5042
DPF2 (PPC2W2); [1]
  Array Heatmap signal, DPF2 (PPC2W2): 0.5621
KDM7A; [1]
  Array Heatmap signal, KDM7A: 0.2957
RAG2; [1]
  Array Heatmap signal, RAG2: 0.309
PHF21A; [1]
  Array Heatmap signal, PHF21A: 0.377
ING3; [1]
  Array Heatmap signal, ING3: 0.3864
SP140L; [1]
  Array Heatmap signal, SP140L: 0.3075
KDM5A (3); [1]
  Array Heatmap signal, KDM5A (3): 0.5269
BPTF (PB); [1]
  Array Heatmap signal, BPTF (PB): 0.2994
CHD5 (PPCC); [1]
  Array Heatmap signal, CHD5 (PPCC): 0.4157
PHF8; [1]
  Array Heatmap signal, PHF8: 0.402
KDM5B (1); [1]
  Array Heatmap signal, KDM5B (1): 0.5889
ING2; [1]
  Array Heatmap signal, ING2: 0.6168
ING4; [1]
  Array Heatmap signal, ING4: 0.356
TAF3; [1]
  Array Heatmap signal, TAF3: 0.2641
PHF2; [1]
  Array Heatmap signal, PHF2: 0.5721
BAZ2B; [1]
  Array Heatmap signal, BAZ2B: 0.3825
CHD5 (PCC); [1]
  Array Heatmap signal, CHD5 (PCC): 0.6375
MORC3 (CW); [1]
  Array Heatmap signal, MORC3 (CW): 0.4658
PHF13; [1]
  Array Heatmap signal, PHF13: 0.4921
KDM5B (3); [1]
  Array Heatmap signal, KDM5B (3): 0.4309
DIDO1; [1]
  Array Heatmap signal, DIDO1: 0.6935
KDM5A (1); [1]
  Array Heatmap signal, KDM5A (1): 0.3527
ING5; [1]
  Array Heatmap signal, ING5: 0.2654
CHD4 (PPCC); [1]
  Array Heatmap signal, CHD4 (PPCC): 0.4966
PHF23; [1]
  Array Heatmap signal, PHF23: 0.5367
PHRF1 (RP); [1]
  Array Heatmap signal, PHRF1 (RP): 0.3639
KDM4C (TTP); [1]
  Array Heatmap signal, KDM4C (TTP): 0.3487

## H3R8me1 + K9me2: H3 1-20
TRIM66 (PB); [1]
  Array Heatmap signal, TRIM66 (PB): 0.6813
AIRE (PP); [1]
  Array Heatmap signal, AIRE (PP): 0.4949
MLL5; [1]
  Array Heatmap signal, MLL5: 0.5733
ING1; [1]
  Array Heatmap signal, ING1: 0.6213
DPF2 (PPC2W2); [1]
  Array Heatmap signal, DPF2 (PPC2W2): 0.8023
KDM7A; [1]
  Array Heatmap signal, KDM7A: 0.3959
RAG2; [1]
  Array Heatmap signal, RAG2: 0.302
PHF21A; [1]
  Array Heatmap signal, PHF21A: 0.4957
ING3; [1]
  Array Heatmap signal, ING3: 0.5783
SP140L; [1]
  Array Heatmap signal, SP140L: 0.3989
KDM5A (3); [1]
  Array Heatmap signal, KDM5A (3): 0.6031
BPTF (PB); [1]
  Array Heatmap signal, BPTF (PB): 0.4109
CHD5 (PPCC); [1]
  Array Heatmap signal, CHD5 (PPCC): 0.658
PHF8; [1]
  Array Heatmap signal, PHF8: 0.3836
KDM5B (1); [1]
  Array Heatmap signal, KDM5B (1): 0.696
ING2; [1]
  Array Heatmap signal, ING2: 0.6201
ING4; [1]
  Array Heatmap signal, ING4: 0.5352
TAF3; [1]
  Array Heatmap signal, TAF3: 0.3249
PHF2; [1]
  Array Heatmap signal, PHF2: 0.6657
BAZ2B; [1]
  Array Heatmap signal, BAZ2B: 0.525
CHD5 (PCC); [1]
  Array Heatmap signal, CHD5 (PCC): 0.7992
MORC3 (CW); [1]
  Array Heatmap signal, MORC3 (CW): 0.4736
PHF13; [1]
  Array Heatmap signal, PHF13: 0.7136
KDM5B (3); [1]
  Array Heatmap signal, KDM5B (3): 0.5247
DIDO1; [1]
  Array Heatmap signal, DIDO1: 0.8013
KDM5A (1); [1]
  Array Heatmap signal, KDM5A (1): 0.5283
ING5; [1]
  Array Heatmap signal, ING5: 0.4288
CHD4 (PPCC); [1]
  Array Heatmap signal, CHD4 (PPCC): 0.7009
PHF23; [1]
  Array Heatmap signal, PHF23: 0.6046
PHRF1 (RP); [1]
  Array Heatmap signal, PHRF1 (RP): 0.6787
KDM4C (TTP); [1]
  Array Heatmap signal, KDM4C (TTP): 0.5659
